A word on the inhibition: it is the percentage by which the read-out fell short of the control. Low readings indicate a weak effect, high ones a strong effect. As a reminder, the IC50 is the point on the concentration scale where inhibition reaches its midpoint.

Consider 24 molecules from US8883778B2, “Cyclic inhibitors of 11 beta-hydroxysteroid dehydrogenase 1” (Vitae Pharmaceuticals, Inc., priority 2009, dated 2014).

The structures appear in SMILES notation.

The assay concerns the target 11β-HSD1 (Homo sapiens, UniProt P28845). As to the kind of experiment: Inhibition of a microsomal preparation of 11β-HSD1, scintillation proximity assay. The format is biochemical. The note with it: microsomes from CHO cells overexpressing human 11β-HSD1; for inhibition at 0.1 µM: at 100 nM. Also noted: expressed in transfected cells; host or cells: CHO cells (microsomes). The procedure:
All reactions were carried out at rt in 96 well clear flexible PET Microbeta plates (PerkinElmer). […] After a 10 minute pre-incubation, 50 μL of enzyme solution containing microsomes isolated from CHO cells overexpressing human 11β-HSD1 (10-20 μg/ml of total protein) was added, and the plates were incubated for 90 minutes at rt. The reaction was stopped by adding 50 μl of the SPA beads suspension containing 10 μM 18β-glycyrrhetinic acid, 5 mg/ml protein A coated YSi SPA beads (GE Healthcare) and 3.3 μg/ml of anti-cortisol antibody (East Coast Biologics) in Superblock buffer (Bio-Rad). The plates were shaken for 120 minutes at rt, and the SPA signal corresponding to [^3H]cortisol was measured on a Microbeta plate reader.

Sequence of 11β-HSD1 (P28845 whole entry): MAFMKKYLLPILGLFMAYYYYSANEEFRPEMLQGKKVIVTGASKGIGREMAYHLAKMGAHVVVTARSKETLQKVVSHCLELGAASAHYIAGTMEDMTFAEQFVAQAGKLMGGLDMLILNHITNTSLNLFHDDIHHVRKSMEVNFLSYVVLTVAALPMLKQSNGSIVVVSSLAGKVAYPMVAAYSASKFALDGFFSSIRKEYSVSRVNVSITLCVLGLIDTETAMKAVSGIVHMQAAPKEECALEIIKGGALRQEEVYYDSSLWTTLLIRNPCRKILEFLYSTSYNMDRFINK

Molecule `C[C@@H](c1ccc(C#CC2(O)CCCC2)cc1)N1CC[C@](CC(C)(C)O)(c2ccccc2)OC1=O` [Example 2, (S)-6-(2-hydroxy-2-methylpropyl)-3-((S)-1-(4-((1-hydroxycyclopentyl)ethynyl)phenyl)ethyl)-6-phenyl-1,3-oxazinan-2-one] yielded an inhibition at 0.1 µM of 89.1% and an IC50 of 1.9 nM.
The corresponding values for `C[C@@H](c1ccc(C#CC(C)(C)N2CCOC2=O)cc1)N1CC[C@](CC(C)(C)O)(c2ccccc2)OC1=O` [Example 3, (S)-6-(2-hydroxy-2-methylpropyl)-3-((S)-1-(4-(3-methyl-3-(2-oxooxazolidin-3-yl)but-1-ynyl)phenyl)ethyl)-6-phenyl-1,3-oxazinan-2-one] are 99.8% and 1.1 nM.
Molecule `C[C@@H](c1ccc(C#CC(C)(C)C(=O)O)cc1)N1CC[C@](CC(C)(C)O)(c2ccccc2)OC1=O` [Example 4, 4-(4-((S)-1-((S)-6-(2-hydroxy-2-methylpropyl)-2-oxo-6-phenyl-1,3-oxazinan-3-yl)ethyl)phenyl)-2,2-dimethylbut-3-ynoic acid] registered an inhibition at 0.1 µM of 86% and an IC50 of 13.4 nM.
For `C[C@@H](c1ccc(C#CC(C)(C)C(=O)N(C)C)cc1)N1CC[C@](CC(C)(C)O)(c2ccccc2)OC1=O` [Example 5, 4-(4-((S)-1-((S)-6-(2-hydroxy-2-methylpropyl)-2-oxo-6-phenyl-1,3-oxazinan-3-yl)ethyl)phenyl)-N,N,2,2-tetramethylbut-3-ynamide], in that order: 97% and 1.1 nM.
Take `C[C@@H](c1ccc(C#CC(C)(C)C(=O)NC2CC2)cc1)N1CC[C@](CC(C)(C)O)(c2ccccc2)OC1=O` [Example 7, N-cyclopropyl-4-(4-((S)-1-((S)-6-(2-hydroxy-2-methylpropyl)-2-oxo-6-phenyl-1,3-oxazinan-3-yl)ethyl)phenyl)-2,2-dimethylbut-3-ynamide]: the inhibition at 0.1 µM worked out at 93.5% and the IC50 amounted to 5.2 nM.
The corresponding values for `C[C@@H](c1ccc(C#CC(C)(C)NC(=O)C2CC2)cc1)N1CC[C@](CC(C)(C)O)(c2ccccc2)OC1=O` [Example 8, N-(4-(4-((S)-1-((S)-6-(2-hydroxy-2-methylpropyl)-2-oxo-6-phenyl-1,3-oxazinan-3-yl)ethyl)phenyl)-2-methylbut-3-yn-2-yl)cyclopropanecarboxamide] are 92.2% and 7.5 nM.
The corresponding values for `C[C@@H](c1ccc(C#Cc2ccccn2)cc1)N1CC[C@](CC(C)(C)O)(c2ccccc2)OC1=O` [Example 9, (S)-6-(2-hydroxy-2-methylpropyl)-6-phenyl-3-((S)-1-(4-(pyridin-2-ylethynyl)phenyl)ethyl)-1,3-oxazinan-2-one] are 96.6% and 1 nM.
`C[C@@H](c1ccc(C#CC2(O)CCOCC2)cc1)N1CC[C@](CC(C)(C)O)(c2ccccc2)OC1=O` [Example 10, (S)-6-(2-hydroxy-2-methylpropyl)-3-((S)-1-(4-((4-hydroxytetrahydro-2H-pyran-4-yl)ethynyl)phenyl)ethyl)-6-phenyl-1,3-oxazinan-2-one] showed an inhibition at 0.1 µM of 84.7% and an IC50 of 6.9 nM.
The corresponding values for `C[C@@H](c1ccc(C#CC2(O)CCN(C)CC2)cc1)N1CC[C@](CC(C)(C)O)(c2ccccc2)OC1=O` [Example 11, (S)-3-((S)-1-(4-((4-hydroxy-1-methylpiperidin-4-yl)ethynyl)phenyl)ethyl)-6-(2-hydroxy-2-methylpropyl)-6-phenyl-1,3-oxazinan-2-one] are 50.5% and 86.3 nM.
For `C[C@@H](c1ccc(C#CC(C)(C)N)cc1)N1CC[C@](CC(C)(C)O)(c2ccccc2)OC1=O` [Example 12, (S)-3-((S)-1-(4-(3-amino-3-methylbut-1-ynyl)phenyl)ethyl)-6-(2-hydroxy-2-methylpropyl)-6-phenyl-1,3-oxazinan-2-one], in that order: 63.7% and 53.4 nM.
For `C[C@@H](c1ccc(C#CC2(N)CCCCC2)cc1)N1CC[C@](CC(C)(C)O)(c2ccccc2)OC1=O` [Example 13, (S)-3-((S)-1-(4-((1-aminocyclohexyl)ethynyl)phenyl)ethyl)-6-(2-hydroxy-2-methylpropyl)-6-phenyl-1,3-oxazinan-2-one], in that order: 82.5% and 12.4 nM.
In turn, `CC(=O)NC1(C#Cc2ccc([C@H](C)N3CC[C@](CC(C)(C)O)(c4ccccc4)OC3=O)cc2)CCCCC1` [Example 14, N-(1-((4-((S)-1-((S)-6-(2-hydroxy-2-methylpropyl)-2-oxo-6-phenyl-1,3-oxazinan-3-yl)ethyl)phenyl)ethynyl)cyclohexyl)acetamide] showed an inhibition at 0.1 µM of 89.8% and an IC50 of 4.2 nM.
The corresponding values for `COC(=O)NC1(C#Cc2ccc([C@H](C)N3CC[C@](CC(C)(C)O)(c4ccccc4)OC3=O)cc2)CCCCC1` [Example 15, Methyl 1-((4-((S)-1-((S)-6-(2-hydroxy-2-methylpropyl)-2-oxo-6-phenyl-1,3-oxazinan-3-yl)ethyl)phenyl)ethynyl)cyclohexylcarbamate] are 92.4% and 2.4 nM.
In turn, `C[C@@H](c1ccc(C#CC2(NC(N)=O)CCCCC2)cc1)N1CC[C@](CC(C)(C)O)(c2ccccc2)OC1=O` [Example 16, 1-(1-((4-((S)-1-((S)-6-(2-hydroxy-2-methylpropyl)-2-oxo-6-phenyl-1,3-oxazinan-3-yl)ethyl)phenyl)ethynyl)cyclohexyl)urea] showed an inhibition at 0.1 µM of 95.6% and an IC50 of 3.1 nM.
For `CC(=O)NC(C)(C)C#Cc1ccc([C@H](C)N2CC[C@](CC(C)(C)O)(c3ccccc3)OC2=O)cc1` [Example 17, N-(4-(4-((S)-1-((S)-6-(2-hydroxy-2-methylpropyl)-2-oxo-6-phenyl-1,3-oxazinan-3-yl)ethyl)phenyl)-2-methylbut-3-yn-2-yl)acetamide], in that order: 84.9% and 11.9 nM.
For `COC(=O)NC(C)(C)C#Cc1ccc([C@H](C)N2CC[C@](CC(C)(C)O)(c3ccccc3)OC2=O)cc1` [Example 18, methyl 4-(4-((S)-1-((S)-6-(2-hydroxy-2-methylpropyl)-2-oxo-6-phenyl-1,3-oxazinan-3-yl)ethyl)phenyl)-2-methylbut-3-yn-2-ylcarbamate], in that order: 94.5% and 3.7 nM.
For `C[C@@H](c1ccc(C#CC(C)(C)NC(N)=O)cc1)N1CC[C@](CC(C)(C)O)(c2ccccc2)OC1=O` [Example 19, 1-(4-(4-((S)-1-((S)-6-(2-hydroxy-2-methylpropyl)-2-oxo-6-phenyl-1,3-oxazinan-3-yl)ethyl)phenyl)-2-methylbut-3-yn-2-yl)urea], in that order: 97.6% and 2.4 nM.
As to `CNC(=O)NC(C)(C)C#Cc1ccc([C@H](C)N2CC[C@](CC(C)(C)O)(c3ccccc3)OC2=O)cc1` [Example 20, 1-(4-(4-((S)-1-((S)-6-(2-hydroxy-2-methylpropyl)-2-oxo-6-phenyl-1,3-oxazinan-3-yl)ethyl)phenyl)-2-methylbut-3-yn-2-yl)-3-methylurea], testing at 0.1 µM gave an inhibition of 92.2% and the IC50 was 4.2 nM.
The corresponding values for `C[C@@H](c1ccc(C#CC(C)(C)NS(C)(=O)=O)cc1)N1CC[C@](CC(C)(C)O)(c2ccccc2)OC1=O` [Example 21, N-(4-(4-((S)-1-((S)-6-(2-hydroxy-2-methylpropyl)-2-oxo-6-phenyl-1,3-oxazinan-3-yl)ethyl)phenyl)-2-methylbut-3-yn-2-yl)methanesulfonamide] are 93.7% and 3.4 nM.
For `C=C(C)C[C@]1(c2ccccc2)CCN([C@@H](C)c2ccc(C#CC(C)(C)NS(C)(=O)=O)cc2)C(=O)O1` [Example 22, N-(2-methyl-4-(4-((S)-1-((R)-6-(2-methylallyl)-2-oxo-6-phenyl-1,3-oxazinan-3-yl)ethyl)phenyl)but-3-yn-2-yl)methanesulfonamide], in that order: 93.6% and 1.8 nM.
For `C[C@@H](c1ccc(C#CC(C)(C)NC(=O)N(C)C)cc1)N1CC[C@](CC(C)(C)O)(c2ccccc2)OC1=O` [Example 23, 3-(4-(4-((S)-1-((S)-6-(2-hydroxy-2-methylpropyl)-2-oxo-6-phenyl-1,3-oxazinan-3-yl)ethyl)phenyl)-2-methylbut-3-yn-2-yl)-1,1-dimethylurea], in that order: 86% and 12.3 nM.
As to `C[C@@H](c1ccc(C#CC2(O)CNC2)cc1)N1CC[C@](CC(C)(C)O)(c2ccccc2)OC1=O` [Example 24, (S)-6-(2-hydroxy-2-methylpropyl)-3-((S)-1-(4-((3-hydroxyazetidin-3-yl)ethynyl)phenyl)ethyl)-6-phenyl-1,3-oxazinan-2-one], the inhibition at 0.1 µM was 56.1% and it took 62.3 nM to reach half-maximal inhibition (IC50).
The corresponding values for `CC(=O)N1CC(O)(C#Cc2ccc([C@H](C)N3CC[C@](CC(C)(C)O)(c4ccccc4)OC3=O)cc2)C1` [Example 25, (S)-3-((S)-1-(4-((1-acetyl-3-hydroxyazetidin-3-yl)ethynyl)phenyl)ethyl)-6-(2-hydroxy-2-methylpropyl)-6-phenyl-1,3-oxazinan-2-one] are 94.1% and 3.6 nM.
For `COC(=O)N1CC(O)(C#Cc2ccc([C@H](C)N3CC[C@](CC(C)(C)O)(c4ccccc4)OC3=O)cc2)C1` [Example 26, Methyl 3-hydroxy-3-((4-((S)-1-((S)-6-(2-hydroxy-2-methylpropyl)-2-oxo-6-phenyl-1,3-oxazinan-3-yl)ethyl)phenyl)ethynyl)azetidine-1-carboxylate], in that order: 95.9% and 2.8 nM.
